Data from patent USRE30561E, “Vinca alkaloid intermediates” (Eli Lilly and Company, priority 1979, dated 1981).

Experiments:
[1] = system: experimental malignancies; conditions: in vivo; cited from earlier work
[2] = system: GLS (Gardner lymphosarcoma); experiment: Transplanted Gardner lymphosarcoma (GLS) tumor in mice; assay type: in vivo; conditions: for inhibitory activity orally / oral activity: orally
Protocol: (§1) The following table--Table 1--gives the results of several experiments in which mice bearing transplanted tumors were treated successfully with a compound of this invention. In the table, column 1 gives the name of the compound; column 2, the transplanted tumor; column 3, the dose level or dose level range and the number of days the dosage was administered; column 4, the route of administration, and column 5, the percent inhibition of tumor growth or percent prolongation of survival time, e.g., B16 and P388. (ROS is an abbreviation for Ridgeway osteogenic sarcoma; GLS for Gardner lymphosarcoma; P1534(J) and P388 are leukemias; CA 755 is an adenocarcinoma; and B16 is a melamoma).

[3] = system: transplanted tumors; conditions: animals; cited from earlier work
[4] = system: CA755; experiment: Transplanted CA755 adenocarcinoma in mice; assay type: in vivo; conditions: for inhibitory activity orally / oral activity: orally
Protocol: as §1

[5] = system: B16; experiment: Transplanted B16 melanoma in mice, prolongation of survival time; assay type: in vivo; conditions: IP
Protocol: as §1

[6] = system: P1534(J); experiment: Transplanted P1534(J) leukemia in mice; assay type: in vivo
Protocol: as §1

[7] = system: ROS (Ridgeway osteogenic sarcoma); experiment: Transplanted Ridgeway osteogenic sarcoma (ROS) in mice; assay type: in vivo; conditions: for inhibitory activity orally / oral activity: orally
Protocol: as §1

[8] = Toxicity at higher oral dose levels in experimental animals; assay type: in vivo; conditions: orally, above 2 (VLB) and 2-4.5 (vincristine) mg./kg.
[9] = system: transplanted tumors; experiment: Activity against transplanted tumors in mice in vivo (general); conditions: for dose level at which comparable tumor inhibition or prolongation of life is shown: parenterally, intraperitoneal route
Protocol: as §1

[10] = humans; cited from earlier work
[11] = system: leukemias; conditions: human, in vivo; cited from earlier work

In the case of CCC1(O)CN2CCc3c([nH]c4ccccc34)C(C(=O)OC)(c3cc4c(cc3OC)N(C)C3C(O)(C(=O)OC)CC5(CC)C=CCN6CCC43C65)CC(C2)C1O (stereo not drawn) [4-desacetoxy-3'-hydroxyvinblastine], the “activity in the treatment of experimental malignancies in animals” value (“activity in the treatment” for short) [1] is listed as “active”.
For CCC1(O)CC2CN(CCc3c([nH]c4ccccc34)C(C(=O)OC)(c3cc4c(cc3OC)N(C)C3C(O)(C(=O)OC)CC5(CC)C=CCN6CCC43C65)C2)C1 (stereo not drawn) [4-desacetoxyvinblastine], the “activity in the treatment” value [1] is given as “active”.
With CCC1(O)CC2CN(CCc3c([nH]c4ccccc34)C(C(=O)OC)(c3cc4c(cc3OC)N(C)C3C5(OC(=O)N(C)C5=O)C(OC(=O)NC)C5(CC)C=CCN6CCC43C65)C2)C1 (stereo not drawn) [4-desacetyl VLB 3"-methyl-3-spiro-5"-oxazolidine-2", 4"-dione-4-(N-methyl)carbamate] the “Percent Inhibition of tumor growth” value ([2]; 0.1-2.5 mg./kg. × 7-9 days, IP) was 40-100%.
With CCC1(O)CC2CN(CCc3c([nH]c4ccccc34)C(C(=O)OC)(c3cc4c(cc3OC)N(C)C3C5(OC(=O)N(C)C5=O)C(O)C5(CC)C=CCN6CCC43C65)C2)C1 (stereo not drawn) [4-desacetyl VLB 3"-methyl-3-spiro-5"-oxazolidone-2",4"-dione] the “Percent Inhibition of tumor growth” value ([2]; 2.5 mg./kg. × 7 days, IP) was 27%.
In the case of CCC1(O)CC2CN(CCc3c([nH]c4ccccc34)C(C(=O)OC)(c3cc4c(cc3OC)N(C)C3C(O)(C(=O)NCCS)C(O)C5(CC)C=CCN6CCC43C65)C2)C1 (stereo not drawn) [C-3 N-(β-mercaptoethyl)carboxamide of 4-desacetyl VLB], the anti-tumor activity [3] is listed as “highly effective anti-tumor agent in mice”.
In the case of CCC1(O)CC2CN(CCc3c([nH]c4ccccc34)C(C(=O)OC)(c3cc4c(cc3OC)N(C)C3C5(OC(=O)N(CCCl)C5=O)C(OC(C)=O)C5(CC)C=CCN6CCC43C65)C2)C1 (stereo not drawn) [VLB 3"-(β-chloroethyl)-3-spiro-5"-oxazolidine-2",4"-dione], the “Percent Inhibition of tumor growth” value ([4]; 0.75-1.0 mg./kg. × 10 days, IP) is reported as 53%, the “Percent Inhibition of tumor growth” value ([4]; 3-5 mg./kg. × 9-10 days, PO) is reported as 59-92% and the inhibitory activity orally ([4]; 3-6 mg./kg.) is reported as 100%. The “Percent Prolongation of Survival Time” value ([5]; 0.4-0.6 mg./kg. × 10 days) was 25-178%, the “indefinite survivors (survived for 60 days till end of trial)” value ([5]; 0.4-0.6 mg./kg. × 10 days) was 5 and the “Percent Inhibition or Prolongation of Survival Time” value (shortened to “Percent Inhibition or Prolongation”) ([6]; 3.5 mg./kg. × 8 days, PO) was 100%. The “Percent Inhibition or Prolongation” value ([6]; 0.4-0.6 mg./kg. × 10 days, IP) was 61-86%, the inhibitory activity orally ([7]; 3-6 mg./kg.) was 100% and the “Percent Inhibition of tumor growth” value ([2]; 0.65 mg./kg. × 10 days, IP) was 47%. For the same compound, the “Percent Inhibition of tumor growth” value ([2]; 0.5-0.6 mg./kg. × 9-10 days, IP) was 50-74%, the “Percent Inhibition of tumor growth” value ([2]; 3-4 mg./kg. × 9 days, PO) was 92-100% and the inhibitory activity orally ([2]; 3-6 mg./kg.) was 100%.
For C=CCN1C(=O)OC2(C1=O)C(OC(C)=O)C1(CC)C=CCN3CCC4(c5cc(C6(C(=O)OC)CC7CN(CCc8c6[nH]c6ccccc86)CC(O)(CC)C7)c(OC)cc5N(C)C24)C31 (stereo not drawn) [VLB 3"-allyl-3-spiro-5"-oxazolidine-2",4"-dione], the “Percent Inhibition of tumor growth” value ([2]; 2.5 mg./kg. × 7 days, IP) was 35%.
With CCC1(O)CC2CN(CCc3c([nH]c4ccccc34)C(C(=O)OC)(c3cc4c(cc3OC)N(C)C3C5(OC(=O)N(C)C5=O)C(OC(C)=O)C5(CC)C=CCN6CCC43C65)C2)C1 (stereo not drawn) [VLB 3"-methyl-3-spiro-5"-oxazolidine-2",4"-dione] the “Percent Inhibition of tumor growth” value ([4]; 0.5-1.0 mg./kg. × 10 days, IP) was 43-100%, the inhibitory activity orally ([4]; 6-7 mg./kg.) was 100% and the “Percent Prolongation of Survival Time” value ([5]; 4.5 mg./kg. × 10 days) was 49-91%. The “indefinite survivors (survived for 60 days till end of trial)” value ([5]; 0.5-0.6 mg./kg. × 10 days) was 3, the “Percent Inhibition or Prolongation” value ([6]; 3-4 mg./kg. × 8 days, PO) was 100% and the “Percent Inhibition or Prolongation” value ([6]; .5-.6 mg./kg. × 10 days, IP) was 100%. The “Percent Inhibition of tumor growth” value ([7]; 5-7 mg./kg. × 10 days, PO) was 38-59%, the inhibitory activity orally ([7]; 6-7 mg./kg.) was 100% and the “Percent Inhibition of tumor growth” value ([2]; 0.6 mg./kg. × 7 days, IP) was 100%. The “Percent Inhibition of tumor growth” value ([2]; 1.25 mg./kg. × 9 days, IP) was 100%, the “Percent Inhibition of tumor growth” value ([2]; 3-4 mg./kg. × 10 days, PO) was 100% and the “Percent Inhibition of tumor growth” value ([2]; 3-5 mg./kg. × 10 days, PO) was 37-56%. The inhibitory activity orally ([2]; 6-7 mg./kg.) was 100%.
In the case of CC[C@]1(O)C[C@@H]2CN(CCc3c([nH]c4ccccc34)[C@@](C(=O)OC)(c3cc4c(cc3OC)N(C)[C@H]3[C@@](O)(C(=O)OC)[C@H](OC(C)=O)[C@]5(CC)C=CCN6CC[C@]43[C@@H]65)C2)C1 [VLB, vincaleukoblastine], the oral activity ([4]; 2 mg./kg.) is listed as “only marginally active, if at all”, the “toxicity at higher levels” value [8] is listed as “usually are toxic at higher levels” and the “activity in the treatment” value [1] is listed as “active”. For the same compound, the “activity by the oral route” value [9] was “do not show this degree of oral activity”, the “dose level at which comparable tumor inhibition or prolongation of life is shown” value [9] was 0.4 to 0.45 mg/kg and the oral activity ([7]; 2 mg./kg.) was “only marginally active, if at all”. For the same compound, the oral activity ([2]; 2 mg./kg.) was “only marginally active, if at all”.
For CCC1CC2CN(CCc3c([nH]c4ccccc34)C(C(=O)OC)(c3cc4c(cc3OC)N(C)C3C(O)(C(=O)OC)C(OC(C)=O)C5(CC)C=CCN6CCC43C65)C2)C1 (stereo not drawn) [deoxy VLB "A"], the “activity in the treatment” value [1] is given as “active”.
In the case of CCC1(O)CN2CCc3c([nH]c4ccccc34)C(C(=O)OC)(c3cc4c(cc3OC)N(C)C3C(O)(C(=O)OC)C(OC(C)=O)C5(CC)C=CCN6CCC43C65)CC(O)(C2)C1 (stereo not drawn) [leurocolombine], the “activity in the treatment” value [1] is listed as “active”.
In the case of CCC12CN3CCc4c([nH]c5ccccc45)C(C(=O)OC)(c4cc5c(cc4OC)N(C=O)C4C(O)(C(=O)OC)C(OC(C)=O)C6(CC)C=CCN7CCC54C76)CC(C3)C1O2 (stereo not drawn) [leuroformine], the “activity in the treatment” value [1] is given as “active”.
In the case of CCC1(O)CC2CN(CCc3c([nH]c4ccccc34)C(C(=O)OC)(c3cc4c(cc3OC)N(C)C3C(O)(C(=O)OC)C(OC(C)=O)C5(CC)C=CCN6CCC43C65)C2)C1 (stereo not drawn) [leurosidine], the “activity in the treatment” value [1] is given as “active”.
In the case of CC[C@]12CN3CCc4c([nH]c5ccccc45)[C@@](C(=O)OC)(c4cc5c(cc4OC)N(C)[C@H]4[C@@](O)(C(=O)OC)[C@H](OC(C)=O)[C@]6(CC)C=CCN7CC[C@]54[C@@H]76)C[C@H](C3)[C@H]1O2 [leurosine], the “activity in the treatment” value [1] is given as “active”.
In the case of CCC1(O)CN2CCc3c([nH]c4ccccc34)C(C(=O)OC)(c3cc4c(cc3OC)N(C)C3C(O)(C(=O)OC)C(OC(C)=O)C5(CC)C=CCN6CCC43C65)CC(C2)C1O (stereo not drawn) [vincadioline], the “activity in the treatment” value [1] is listed as “active”.
In the case of CCC1(O)CC2CN(CCc3c([nH]c4ccccc34)C(C(=O)OC)(c3cc4c(cc3OC)N(C=O)C3C5(OC(=O)N(C)C5=O)C(OC(C)=O)C5(CC)C=CCN6CCC43C65)C2)C1 (stereo not drawn) [vincristine 3"-methyl-3-spiro-5"-oxazolidone-2",4"-dione], the “Percent Inhibition of tumor growth” value ([2]; 1.0 mg./kg. × 7 days, IP) is reported as 61%.
For CC[C@]1(O)C[C@H]2CN(CCc3c([nH]c4ccccc34)[C@@](C(=O)OC)(c3cc4c(cc3OC)N(C=O)[C@H]3[C@@](O)(C(=O)OC)[C@H](OC(C)=O)[C@]5(CC)C=CCN6CC[C@]43[C@@H]65)C2)C1 [vincristine, leurocristine], the oral activity ([4]; 2-4.5 mg./kg.) is given as “only marginally active, if at all”, the “toxicity at higher levels” value [8] is given as “usually are toxic at higher levels” and the “activity in the treatment” value [1] is given as “active”. For the same compound, the “activity by the oral route” value [9] was “do not show this degree of oral activity”, the “dose level at which comparable tumor inhibition or prolongation of life is shown” value [9] was 0.2 to 0.25 mg/kg and the oral activity ([7]; 2-4.5 mg./kg.) was “only marginally active, if at all”. For the same compound, the oral activity ([2]; 2-4.5 mg./kg.) was “only marginally active, if at all”.
For CC[C@]1(O)C[C@@H]2CN(CCc3c([nH]c4ccccc34)[C@@](C(=O)OC)(c3cc4c(cc3OC)N(C)[C@H]3[C@@](O)(C(N)=O)[C@H](O)[C@]5(CC)C=CCN6CC[C@]43[C@@H]65)C2)C1 [vindesine, 4-desacetyl VLB C-3 carboxamide], the “neurotoxicity compared with vincristine” value [10] is given as “less neurotoxicity than does vincristine” and the “activity in leukemias in humans” value [11] is given as “active in certain leukemias”.
